Test results published in patent publication US20100173968A1, “SUB-TYPE SELECTIVE AZABICYCLOALKANE DERIVATIVES” (TARGACEPT, INC., priority 2007, published 2010).
pKi: −log10 of the molar value.

How the values were obtained:
α7 nAChR Subtype = α7 nAChR Subtype (Rattus norvegicus, UniProt Q05941); assay: Radioligand binding at α7 nAChR subtype, inhibition of [3H]MLA binding, rat hippocampus membranes (HTS at 5 μM, then Ki)
α4β2 nAChR Subtype = α4β2 nAChR Subtype (Rattus norvegicus, UniProt P09483+P12390); assay: Radioligand binding at α4β2 nAChR subtype, inhibition of [3H]nicotine binding, rat cerebral cortex membranes; details: [3H]nicotine 5 nM, read-out: Rat α4β2 Ki
Description: The [^3H]nicotine (Specific Activity=81.5 Ci/mmol) was obtained from NEN Research Products. The binding of [^3H]nicotine was measured using a 3 h incubation at 4° C. […] Each filter was washed with ice-cold buffer (3×1 mL).
Each concentration was replicated in triplicate.

Human α4β2 = Human α4β2 (Homo sapiens, UniProt P17787+P43681); assay: Binding at human α4β2 (Ki); method not described
[1] = NOR (novel object recognition) task; format: in vivo; details: orally, in rats
Description: Certain exemplified compounds were assessed in the NOR (novel object recognition) task. This illustrates efficacy and potency of the compounds of the present invention in treating cognitive deficits, attention disorders, and dementias, and the potential of these compounds for human therapy.

Chain of α4β2 nAChR Subtype (P09483 31-630): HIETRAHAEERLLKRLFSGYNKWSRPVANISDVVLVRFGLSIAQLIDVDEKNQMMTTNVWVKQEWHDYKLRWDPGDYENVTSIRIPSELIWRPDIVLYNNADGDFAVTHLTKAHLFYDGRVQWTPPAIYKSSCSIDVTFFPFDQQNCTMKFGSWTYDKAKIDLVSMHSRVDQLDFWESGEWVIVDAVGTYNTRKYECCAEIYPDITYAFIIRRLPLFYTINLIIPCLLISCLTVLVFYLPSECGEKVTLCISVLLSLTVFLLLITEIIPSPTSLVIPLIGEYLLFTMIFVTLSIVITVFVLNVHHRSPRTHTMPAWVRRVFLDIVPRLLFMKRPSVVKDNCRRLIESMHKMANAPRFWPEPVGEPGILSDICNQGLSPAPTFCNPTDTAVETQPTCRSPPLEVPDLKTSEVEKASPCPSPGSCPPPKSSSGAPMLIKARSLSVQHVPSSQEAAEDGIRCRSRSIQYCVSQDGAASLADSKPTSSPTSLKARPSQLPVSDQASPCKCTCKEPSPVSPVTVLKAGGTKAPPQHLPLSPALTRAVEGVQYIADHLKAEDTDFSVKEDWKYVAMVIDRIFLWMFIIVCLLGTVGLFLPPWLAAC
Chain of α4β2 nAChR Subtype (P12390 25-500): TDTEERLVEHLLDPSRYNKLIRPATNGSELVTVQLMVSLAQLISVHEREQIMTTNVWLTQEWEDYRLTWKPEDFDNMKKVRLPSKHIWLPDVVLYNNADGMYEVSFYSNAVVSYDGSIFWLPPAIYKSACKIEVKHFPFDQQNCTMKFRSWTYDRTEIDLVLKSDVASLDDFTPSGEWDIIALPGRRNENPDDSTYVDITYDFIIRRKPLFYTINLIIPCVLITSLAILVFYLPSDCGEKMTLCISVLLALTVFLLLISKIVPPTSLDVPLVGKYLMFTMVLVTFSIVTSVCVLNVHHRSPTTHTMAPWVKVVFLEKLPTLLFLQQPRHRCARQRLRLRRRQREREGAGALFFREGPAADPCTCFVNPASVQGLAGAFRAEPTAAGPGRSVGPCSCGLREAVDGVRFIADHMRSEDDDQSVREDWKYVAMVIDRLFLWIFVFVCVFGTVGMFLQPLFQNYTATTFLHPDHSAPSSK
Chain of Human α4β2 (P43681 29-627 limits assumed): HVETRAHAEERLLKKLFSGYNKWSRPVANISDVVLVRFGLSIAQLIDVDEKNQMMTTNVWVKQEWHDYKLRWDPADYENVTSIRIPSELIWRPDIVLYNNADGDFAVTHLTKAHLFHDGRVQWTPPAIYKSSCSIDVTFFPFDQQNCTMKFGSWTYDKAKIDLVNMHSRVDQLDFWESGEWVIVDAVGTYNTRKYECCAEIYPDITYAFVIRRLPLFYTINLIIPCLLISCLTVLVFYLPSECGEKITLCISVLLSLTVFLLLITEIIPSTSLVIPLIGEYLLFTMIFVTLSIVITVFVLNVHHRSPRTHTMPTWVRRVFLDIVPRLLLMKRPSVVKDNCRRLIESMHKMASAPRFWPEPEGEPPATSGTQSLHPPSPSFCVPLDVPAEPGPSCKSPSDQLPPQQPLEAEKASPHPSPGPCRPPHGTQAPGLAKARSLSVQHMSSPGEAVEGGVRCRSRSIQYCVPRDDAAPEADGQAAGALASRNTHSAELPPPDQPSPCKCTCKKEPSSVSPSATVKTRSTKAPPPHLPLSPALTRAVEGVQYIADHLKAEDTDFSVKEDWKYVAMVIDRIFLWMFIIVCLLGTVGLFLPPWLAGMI
Chain of Human α4β2 (P17787 26-502): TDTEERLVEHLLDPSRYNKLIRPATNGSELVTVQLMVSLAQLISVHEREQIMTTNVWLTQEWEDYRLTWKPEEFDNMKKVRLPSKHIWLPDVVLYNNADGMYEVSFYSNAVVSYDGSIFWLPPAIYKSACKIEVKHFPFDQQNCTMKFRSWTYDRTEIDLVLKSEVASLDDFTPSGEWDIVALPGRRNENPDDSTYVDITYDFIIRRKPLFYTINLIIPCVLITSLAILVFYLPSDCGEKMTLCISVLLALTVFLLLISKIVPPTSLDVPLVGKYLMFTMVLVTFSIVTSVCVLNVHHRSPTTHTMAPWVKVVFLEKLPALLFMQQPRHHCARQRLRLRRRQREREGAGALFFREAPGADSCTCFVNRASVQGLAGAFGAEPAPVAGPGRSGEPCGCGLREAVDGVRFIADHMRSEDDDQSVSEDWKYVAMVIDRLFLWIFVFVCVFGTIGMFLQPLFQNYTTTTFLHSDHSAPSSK
Chain of α7 nAChR Subtype (Q05941 23-502): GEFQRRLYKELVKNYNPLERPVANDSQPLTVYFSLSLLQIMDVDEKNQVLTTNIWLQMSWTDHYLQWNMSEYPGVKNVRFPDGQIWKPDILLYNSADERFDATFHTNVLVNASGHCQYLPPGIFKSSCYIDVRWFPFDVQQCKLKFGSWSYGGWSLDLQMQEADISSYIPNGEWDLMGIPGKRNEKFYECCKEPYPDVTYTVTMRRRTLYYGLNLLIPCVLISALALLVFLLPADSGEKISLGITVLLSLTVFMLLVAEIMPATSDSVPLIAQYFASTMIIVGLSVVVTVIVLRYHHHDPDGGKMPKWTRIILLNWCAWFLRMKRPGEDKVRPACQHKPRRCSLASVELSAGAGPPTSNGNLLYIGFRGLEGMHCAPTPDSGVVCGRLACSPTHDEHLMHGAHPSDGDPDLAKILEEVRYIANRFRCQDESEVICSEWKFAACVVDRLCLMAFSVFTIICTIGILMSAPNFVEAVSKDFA

SMILES | pKi (α7 nAChR Subtype) | pKi (α4β2 nAChR Subtype) | pKi (Human α4β2) | activity in the NOR task (recognition index) ([1]; dose of 0.1 mg/kg, FIG. 1) | activity in the NOR task (recognition index) ([1]; dose of 1 mg/kg, FIG. 2)
COC(=O)C1C[C@H]2CNC[C@H]2C1 (mixture of isomers) [Compound A, methyl 3-azabicyclo[3.3.0]octane-7-carboxylate] | < 5.00 | 7.70 | 8.10 | active | 
CNC(=O)C1CC2CNCC(C2)C1 (centres unmarked) [Compound B, N-methyl-3-azabicyclo[3.3.1]nonane-7-carboxamide] | < 5.00 | 8.22 | 8.70 |  | active
